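Compound exposure: 48 hours, 5 concentrations, 96-well plates. GI50 is the concentration that inhibits growth by half. TGI: total growth inhibition.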
Legend:
Assay in all cases: NCI-60 cell line screen, 48 h
[1] = test system: 786-0 renal
[2] = test system: HT29 colon
[3] = test system: SN12C renal
[4] = test system: SR leukemia
[5] = test system: SK-OV-3 ovarian
[6] = test system: SK-MEL-5 melanoma
[7] = test system: SNB-75 CNS
[8] = test system: M14 melanoma
[9] = test system: HOP-92 NSCLC
[10] = test system: MDA-MB-435

Compound `CC(c1ccc(Br)cc1)C(C(=O)O)C(=O)O` (stereo unspecified) has a TGI [1] of over 100 µM, a TGI [2] of over 100 µM and a TGI [3] of over 100 µM. The TGI [4] was over 100 µM, the TGI [5] was over 100 µM and the TGI [6] was over 100 µM. The TGI [7] was over 100 µM and the TGI [8] was over 100 µM.

Work on `COc1ccc(-c2n[nH]nc2-c2csc3ccccc23)cc1OC` yielded a GI50 [9] of 0.922 µM, a TGI [9] of 6.69 µM and a GI50 [1] of 3.26 µM. It also gave a TGI [1] of 22.6 µM, a GI50 [2] of 2.78 µM and a TGI [2] of 10.6 µM. It also gave a GI50 [3] of 8.8 µM, a TGI [3] of 79.9 µM and a GI50 [5] of 2.37 µM. The TGI [5] was 19.3 µM, the GI50 [6] was 2.83 µM and the TGI [6] was 8.79 µM. The GI50 [10] was 0.337 µM, the TGI [10] was 3.52 µM and the GI50 [8] was 1.95 µM. It also gave a TGI [8] of 15.6 µM.

`COc1ccc2[nH]cc(-c3nc(-c4cn(C)c5ccncc45)cs3)c2c1` was tested, and the GI50 [9] was 1.9 µM, the TGI [9] was 3.63 µM and the GI50 [1] was 1.54 µM. The TGI [1] was 2.9 µM, the GI50 [2] was 1.53 µM and the TGI [2] was 3.33 µM. For the same compound, the GI50 [3] was 1.64 µM, the TGI [3] was 3.08 µM and the GI50 [5] was 19.4 µM. The TGI [5] was 33.7 µM, the GI50 [6] was 1.64 µM and the TGI [6] was 3.04 µM. For the same compound, the GI50 [10] was 1.71 µM, the TGI [10] was 3.22 µM and the GI50 [7] was 15.3 µM. For the same compound, the TGI [7] was 29 µM, the GI50 [8] was 1.75 µM and the TGI [8] was 3.24 µM.

`C(=C\c1csnn1)/c1cccnc1` gave a TGI [1] of over 100 µM, a TGI [2] of over 100 µM and a TGI [3] of over 100 µM. For the same compound, the TGI [5] was over 100 µM, the TGI [7] was over 100 µM and the TGI [8] was over 100 µM.

Compound `O=c1c2ccc3cccc4c(=O)cc(c5ccccc15)-c2c34` has a TGI [1] of over 100 µM, a TGI [2] of over 100 µM and a TGI [3] of over 100 µM. For the same compound, the TGI [4] was over 100 µM, the TGI [5] was over 100 µM and the TGI [6] was over 100 µM. The TGI [7] was over 100 µM and the TGI [8] was over 100 µM.

`C=C=C(C)[Si](C)(C)C` gave a TGI [1] of over 100 µM, a TGI [2] of over 100 µM and a TGI [3] of over 100 µM. For the same compound, the TGI [4] was over 100 µM, the TGI [5] was over 100 µM and the TGI [6] was over 100 µM. For the same compound, the TGI [10] was over 100 µM, the TGI [7] was over 100 µM and the TGI [8] was over 100 µM.

Work on `Cn1c(CCC#N)nc2ccc(Br)cc2c1=O` yielded a TGI [9] of over 100 µM, a TGI [1] of over 100 µM and a TGI [2] of over 100 µM. The TGI [3] was over 100 µM, the TGI [5] was over 100 µM and the TGI [6] was over 100 µM. It also gave a TGI [7] of over 100 µM and a TGI [8] of over 100 µM.

Compound `O=c1/c(=C/c2ccc(Cl)cc2Cl)sc2nc3ccccc3n12` has a TGI [9] of over 100 µM, a TGI [1] of over 100 µM and a TGI [2] of over 100 µM. For the same compound, the TGI [3] was over 100 µM, the TGI [5] was over 100 µM and the TGI [6] was over 100 µM. It also gave a TGI [7] of over 100 µM and a TGI [8] of over 100 µM.

With `O=C(Nc1c(-c2nc3ccccc3[nH]2)sc(=S)n1-c1ccccc1)c1ccccc1` the TGI [1] was over 100 µM, the TGI [2] was over 100 µM and the TGI [3] was over 100 µM. The TGI [5] was over 100 µM, the TGI [6] was over 100 µM and the TGI [7] was 58.4 µM. For the same compound, the TGI [8] was over 100 µM.

For `Cc1ccc(NC(=O)/C(CC(=O)c2c[n+](=O)c3ccccc3n2O)=N\NC(=O)C[n+]2ccccc2)cc1`, the TGI [1] was over 100 µM, the TGI [2] was over 100 µM and the TGI [3] was over 100 µM. It also gave a TGI [4] of over 100 µM, a TGI [5] of over 100 µM and a TGI [6] of over 100 µM. For the same compound, the TGI [7] was over 100 µM and the TGI [8] was over 100 µM.

Reference: PubChem BioAssay (NCI)
